Laboratory results reported in ChEMBL document CHEMBL2074562, “Substrate specificity of the rat liver Na(+)-bile salt cotransporter in Xenopus laevis oocytes and in CHO cells” (Am J Physiol, 1998).

Tests used:
Assay type in all cases: functional, cell-based
Conditions in all cases: hamster
[1] = target: T1, Hepatic sodium/bile acid cotransporter (Rattus norvegicus, UniProt P26435); assay: TP_TRANSPORTER: inhibition of Taurocholate uptake (Taurocholate: 2.5 uM, Estradiol-3-sulfate: 68 uM) in Ntcp-expressing CHO cells
T1 sequence (P26435 whole entry): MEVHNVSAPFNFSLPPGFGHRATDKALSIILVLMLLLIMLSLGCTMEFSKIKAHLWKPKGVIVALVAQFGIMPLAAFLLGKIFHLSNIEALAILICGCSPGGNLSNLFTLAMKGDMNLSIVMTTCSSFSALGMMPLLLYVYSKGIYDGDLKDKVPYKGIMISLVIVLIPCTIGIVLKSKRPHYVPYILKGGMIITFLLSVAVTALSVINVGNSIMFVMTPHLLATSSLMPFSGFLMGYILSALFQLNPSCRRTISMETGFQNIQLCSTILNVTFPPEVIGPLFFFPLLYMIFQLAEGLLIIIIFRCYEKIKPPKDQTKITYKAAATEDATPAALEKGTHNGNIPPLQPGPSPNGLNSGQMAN

[2] = target: T1, Hepatic sodium/bile acid cotransporter; assay: TP_TRANSPORTER: inhibition of Taurocholate uptake (Taurocholate: 2.5 uM, E1S: 200 uM) in Ntcp-expressing CHO cells
[3] = target: T1, Hepatic sodium/bile acid cotransporter; assay: TP_TRANSPORTER: inhibition of Taurocholate uptake (Taurocholate: 2.5 uM, Progesterone: 200 uM) in Ntcp-expressing CHO cells
[4] = target: T1, Hepatic sodium/bile acid cotransporter; assay: TP_TRANSPORTER: inhibition of Taurocholate uptake (Taurocholate: 2.5 uM, Testosterone: 200 uM) in Ntcp-expressing CHO cells

C[C@]12CC[C@@H]3c4ccc(OS(=O)(=O)O)cc4CC[C@H]3[C@@H]1CC[C@@H]2O
Activity [1]: inhibitor [(at a rough estmate) 5 % of control]

C[C@]12CC[C@@H]3c4ccc(OS(=O)(=O)O)cc4CC[C@H]3[C@@H]1CCC2=O [ESTRONE SULFURIC ACID]
Activity [2]: inhibitor [(at a rough estmate) 30 % of control]

CC(=O)[C@H]1CC[C@H]2[C@@H]3CCC4=CC(=O)CC[C@]4(C)[C@H]3CC[C@]12C [PROGESTERONE]
Activity [3]: inhibitor [(at a rough estmate) 70 % of control]

C[C@]12CC[C@H]3[C@@H](CCC4=CC(=O)CC[C@@]43C)[C@@H]1CC[C@@H]2O [TESTOSTERONE]
Activity [4]: inhibitor [(at a rough estmate) 50 % of control]
